In patent publication US20260256780A1, “COMPOSITIONS FOR INDUCING RAS GTP HYDROLYSIS AND USES THEREOF” (Revolution Medicines, Inc., priority 2023, published 2026):

What was measured:
[1] = tested on: KRASG12D-mutant cell line AsPC-1; assay: Cell viability (CellTiter-Glo) and HSA synergy model, AsPC-1; type: cell-based
Procedure: (§1) Cell lines were seeded in complete growth media (RPMI-1640 or DMEM with 10% Fetal Bovine Serum and 1% Penicillin/Streptomycin) and allowed to adhere overnight in a 37° C. and 5% CO2 humidified incubator. The following day compounds were added at the indicate concentrations and incubated for a further 5 days. The number of viable cells in each well were assessed with Promega CellTiter-Glo® reagent according to manufacturer instructions. The cell viability was normalized to DMSO controls. The cell viability as a function of compound concentrations were plotted using GraphPad Prism analyzed using the Combenefit software package (Di Veroli G Y, Fornari C, Wang D, Mollard S, Bramhall J L, Richards F M, Jodrell D I. Combenefit: an interactive platform for the analysis and visualization of drug combinations. Bioinformatics. 2016 Sep. 15; 32(18):2866-8. doi: 10.1093/bioinformatics/btw230) to assess the synergy according to the highest single agent (HSA) synergy model (Borisy A A, Elliott P J, Hurst N W, Lee M S, Lehar J, Price E R, Serbedzija G, Zimmermann G R, Foley M A, Stockwell B R, Keith C T. Systematic discovery of multicomponent therapeutics. Proc Natl Acad Sci USA. 2003 Jun. 24; 100(13):7977-82. doi: 10.1073/pnas.1337088100)).
The KRASG12D-mutant cell line AsPC-1 was grown in RPMI-1640 supplemented with 10% fetal bovine serum and 1% penicillin/streptomycin. 2500 cells were seeded in 0.15 mL in the wells of a tissue culture-treated 96-well plate. After overnight incubation, compounds were added at the indicated concentration and incubated for a further 120 hours. Cell viability was assessed with Promega CellTiter Glo reagent, and the relative cell viability was plotted as a function of the concentration of (FIG. 4A and FIG. 4G) MRTX1133 or (FIG. 4D) MRTX-282 in combination with the indicated concentration to Compound A (FIG. 4A and FIG. 4D) or Compound D (FIG. 4G), both strong hydrolyzers. The synergy between (FIG. 4B and FIG. 4H) MRTX1133 or (FIG. 4E) MRTX-282 and Compound A (FIGS. 4B and 4E) or Compound D (FIG. 4H) was assessed by the HAS synergy model. Representative points of synergistic drug combination between (FIG. 4C and FIG. 4I) MRTX1133 or (FIG. 4F) MRTX-282 and Compound A (FIG. 4C and FIG. 4F) or Compound D (FIG. 4I) are highlighted.
The KRASG12D-mutant cell line AsPC-1 was grown in RPMI-1640 supplemented with 10% fetal bovine serum and 1% penicillin/streptomycin. 2000 cells were seeded in 0.15 mL in the wells of a tissue culture-treated 96-well plate. After overnight incubation, compounds were added at the indicated concentration and incubated for a further 120 hours. Cell viability was assessed with Promega CellTiter Glo reagent, and the relative cell viability was plotted as a function of the concentration of pan KRAS-IN-1 in combination with the indicated concentration to Compound D (FIG. 11A) or Compound C (FIG. 11D), both strong hydrolyzers. The synergy between pan KRAS-IN-1 and Compound D (FIG. 11B) or Compound C (FIG. 11E) was assessed by the HAS synergy model. Representative points of synergistic drug combination between pan KRAS-IN-1 and Compound D (FIG. 11C) or Compound C (FIG. 11F).

[2] = tested on: KRASG12D-mutant cell line Gp2D; assay: Cell viability (CellTiter-Glo) and HSA synergy model, Gp2D; type: cell-based
Procedure: as §1
(§2) The KRASG12D-mutant cell line Gp2D was grown in RPMI-16 40 supplemented with 10% fetal bovine serum and 1% penicillin/streptomycin. […]

[3] = tested on: KRASG12C-mutant cell line MiaPaCa2; assay: Cell viability (CellTiter-Glo) and HSA synergy model, MiaPaCa2; type: cell-based
Procedure: as §1
The KRASG12C-mutant cell line MiaPaCa2 was grown in DMEM supplemented with 10% fetal bovine serum and 1% penicillin/streptomycin. […]

[4] = tested on: KRASG12D-mutant cell line HPAC; assay: Cell viability (CellTiter-Glo) and HSA synergy model, HPAC; type: cell-based
Procedure: as §1
The KRASG12D-mutant cell line HPAC was grown in RPMI-16 40 supplemented with 10% fetal bovine serum and 1% penicillin/streptomycin. […]

KRAS^G12C = target: T1, KRAS^G12C (Homo sapiens, UniProt P01116, G12C); assay: Covalent modification (cross-linking) of KRAS^G12C by sotorasib in MiaPaCa2 cells, immunoblot; type: cell-based
T1 construct: endogenous in cells; host or cells: MiaPaCa2
Procedure: The KRASG12C-mutant cell line MiaPaCa2 was grown in DMEM supplemented with 10% fetal bovine serum and 1% penicillin/streptomycin. 2500 cells were seeded in 0.15 mL in the wells of a tissue culture-treated 96-well plate. After overnight incubation, compounds were added at the indicated concentration and incubated for a further 120 hours. […] The density of the KRAS^G12C and KRAS^G12C-Soto. gel bands can be quantified, plotted as a function of time, and fit to a single-phase exponential model to get the rate constant for KRAS^G12C target engagement.

[5] = tested on: KRASG12C-mutant cell line H358; assay: Cell viability (CellTiter-Glo) and HSA synergy model, H358; type: cell-based; conditions: in combination with pan KRAS-IN-1, 120 hours
Procedure: as §1
The KRASG12C-mutant cell line H358 was grown in RPMI-1640 supplemented with 10% fetal bovine serum and 1% penicillin/streptomycin. […]

[6] = tested on: KRASG12R-mutant cell line PSN1; assay: Cell viability (CellTiter-Glo) and HSA synergy model, PSN1; type: cell-based; conditions: in combination with pan KRAS-IN-1, 120 hours
Procedure: as §1
The KRASG12R-mutant cell line PSN1 was grown in RPMI-1640 supplemented with 10% fetal bovine serum and 1% penicillin/streptomycin. […]

[7] = tested on: KRASG12V-mutant cell line Capan-2; assay: Cell viability (CellTiter-Glo) and HSA synergy model, Capan-2; type: cell-based; conditions: in combination with pan KRAS-IN-1, 120 hours
Procedure: as §1
The KRASG12V-mutant cell line Capan-2 was grown in RPMI-1640 supplemented with 10% fetal bovine serum and 1% penicillin/streptomycin. […]

[8] = tested on: RAS wild-type cell line, HaCat; assay: Cell viability (CellTiter-Glo) and HSA synergy model, HaCat control; type: cell-based, human
Procedure: as §1, §2

[9] = AsPC-1, in combination with MRTX1133, 120 hours
[10] = in combination with MRTX1133, 120 hours
[11] = in combination with MRTX-282, 120 hours
[12] = AsPC-1, in combination with pan KRAS-IN-1, 120 hours

Structure (SMILES) | synergy on cell viability (HSA synergy model) [1, 9] | synergy on cell viability (HSA synergy model) ([1]; AsPC-1, in combination with MRTX-282, 120 hours) | synergy on cell viability (HSA synergy model) [2, 10] | synergy on cell viability (HSA synergy model) [2, 11] | synergy on cell viability (HSA synergy model) ([3]; MiaPaCa2, in combination with AMG510, 120 hours) | synergy on cell viability (HSA synergy model) ([3]; MiaPaCa2, in combination with MRTX849, 120 hours) | synergy on cell viability (HSA synergy model) [4, 10] | synergy on cell viability (HSA synergy model) [4, 11] | cross-linking efficiency of sotorasib (KRAS^G12C; MiaPaCa2 cells, 1 μM sotorasib in combination with 1 μM or 10 μM Compound A vs sotorasib alone) | amount of covalently-modified KRAS^G12C (KRAS^G12C-Soto.) (KRAS^G12C; MiaPaca-2 cells, sotorasib in combination with 1 or 10 μM of Compound A) | rate of covalent engagement of KRAS^G12C (rate constant for target engagement) (KRAS^G12C; combination of sotorasib and compound A compared with sotorasib alone) | synergy on cell viability (HSA synergy model) [1, 12] | synergy on cell viability (HSA synergy model) [5] | synergy on cell viability (HSA synergy model) [6] | synergy on cell viability (HSA synergy model) [7] | synergy on cell viability (HSA synergy model) ([8]; in combination with MRTX1133) | synergy on cell viability (HSA synergy model) ([8]; in combination with MRTX-282)
CCn1c(-c2cccnc2[C@H](C)OC)c2c3cc(ccc31)[C@@H]1C[C@H]1CC[C@H](NC(=O)[C@H]1[C@H](C)[C@@H]1C)C(=O)N1CCC[C@H](N1)C(=O)OCC(C)(C)C2 (atropisomer, axis not shown) [compound 1] | synergistic | synergistic | synergistic | synergistic | synergistic | synergistic | synergistic | synergistic | increases in a concentration dependent manner | increased at each time point | more rapid |  |  |  |  |  | 
CCn1c(-c2cc(N3CCN(C)CC3)cnc2[C@H](C)OC)c2c3cc(ccc31)CCCC[C@H](NC(=O)[C@H]1C[C@@H]1C)C(=O)N1CCC[C@H](N1)C(=O)OCC(C)(C)C2 (atropisomer, axis not shown) [compound 3] |  |  |  |  |  |  |  |  |  |  |  | synergistic | synergistic | synergistic | synergistic |  | 
CCn1c(-c2cc(N3CCN(C)CC3)cnc2[C@H](C)OC)c2c3cc(ccc31)[C@@H]1C[C@H]1CC[C@H](NC(=O)[C@H]1[C@H](C)[C@@H]1C)C(=O)N1CCC[C@H](N1)C(=O)OCC(C)(C)C2 (atropisomer, axis not shown) [compound 6] | synergistic |  |  |  |  |  |  |  |  |  |  | synergistic | synergistic | synergistic | synergistic | no synergy | no synergy
